Experiments:
[1] = tested on: rabbit serum obtained by immunizing a rabbit with the SARS-CoV strain Frankfurt 1; type: binding; set-up: Binding of a rabbit serum to linear peptides / Binding of a rabbit serum to looped peptides / Rabbit serum linear peptides / Rabbit serum looped peptides / Binding of a rabbit serum to linear peptides of protein N of SARS-CoV Urbani (Rabbit serum linear peptides) / Binding of a rabbit serum to looped/cyclic peptides of protein N of SARS-CoV Urbani (Rabbit serum looped peptides): unit not given here
[2] = tested on: control sera (pooled serum of ten healthy LUMC hospital workers; commercial negative donor pooled serum from the Dutch bloodbank); type: binding, human
[3] = tested on: antibodies in sera from SARS patients (sera 1a, 1b, 2, 6, 37, 62, London, SARS-yellow, SARS-green); type: binding, human

| Sequence | Binding of a rabbit serum to linear peptides [1] | Binding of a rabbit serum to looped peptides [1] | Binding of Control Serum Blood-Bank to Looped peptides [2] | Binding of Control serum Blood-bank to linear peptides [2] | Binding of Control serum LUMC to linear peptides [2] | Binding of Control serum LUMC to looped peptides [2] | Binding of serum 1a to linear peptides of protein E of SARS-CoV Urbani [3] | Binding of serum 1a to looped/cyclic peptides of protein E of SARS-CoV Urbani [3] | Binding of serum 1b to linear peptides of protein E of SARS-CoV Urbani [3] | Binding of serum 1b to looped/cyclic peptides of protein E of SARS-CoV Urbani [3] | Binding of serum 2 to linear peptides of protein E of SARS-CoV Urbani [3] | Binding of serum 2 to looped/cyclic peptides of protein E of SARS-CoV Urbani [3] | Binding of serum 6 to linear peptides of protein E of SARS-CoV Urbani [3] | Binding of serum 6 to looped/cyclic peptides of protein E of SARS-CoV Urbani [3] | Binding of serum 37 to linear peptides of protein E of SARS-CoV Urbani [3] | Binding of serum 37 to looped/cyclic peptides of protein E of SARS-CoV Urbani [3] | Binding of serum 62 to linear peptides of protein E of SARS-CoV Urbani [3] | Binding of serum 62 to looped/cyclic peptides of protein E of SARS-CoV Urbani [3] | Binding of serum London to linear peptides of protein E of SARS-CoV Urbani [3] | Binding of serum London to looped/cyclic peptides of protein E of SARS-CoV Urbani [3] | also measured |
| --- | --- | --- | --- | --- | --- | --- | --- | --- | --- | --- | --- | --- | --- | --- | --- | --- | --- | --- | --- | --- | --- |
| VVFLLVTLAILTALR | 0.5 | 0.2 | 0.6 | 0.6 | 0.4 | 0.6 | 0.7 | 0.5 | 0.4 | 0.3 | 0.4 | 0.5 | 0.6 | 0.5 | 0.6 | 0.4 | 0.6 | 0.7 | 0.5 | 0.5 | Binding of serum SARS-green to linear peptides of protein E of SARS-CoV Urbani [3]: 0.5; Binding of serum SARS-green to looped/cyclic peptides of protein E of SARS-CoV Urbani [3]: 0.2; Binding of serum SARS-yellow to linear peptides of protein E of SARS-CoV Urbani [3]: 0.1; Binding of serum SARS-yellow to looped/cyclic peptides of protein E of SARS-CoV Urbani [3]: 0.5 |
| GTLIVNSVLLFLAFV | 0.6 | 0.0 | 0.7 | 0.7 | 0.5 | 0.3 | 0.8 | 0.2 | 0.7 | 0.0 | 0.4 | 0.6 | 0.9 | 0.3 | 0.8 | 0.2 | 0.7 | 0.4 | 0.5 | 0.4 | Binding of serum SARS-green to linear peptides of protein E of SARS-CoV Urbani [3]: 0.4; Binding of serum SARS-green to looped/cyclic peptides of protein E of SARS-CoV Urbani [3]: 0.4; Binding of serum SARS-yellow to linear peptides of protein E of SARS-CoV Urbani [3]: 0.2; Binding of serum SARS-yellow to looped/cyclic peptides of protein E of SARS-CoV Urbani [3]: 0.0 |
| FLAFVVFLLVTLAIL | 0.0 | 0.2 | 0.8 | 0.4 | 0.4 | 0.6 | 0.7 | 0.5 | 0.5 | 0.5 | 0.2 | 0.6 | 0.4 | 0.5 | 0.3 | 0.6 | 0.1 | 0.7 | 0.4 | 0.4 | Binding of serum SARS-green to linear peptides of protein E of SARS-CoV Urbani [3]: 0.7; Binding of serum SARS-green to looped/cyclic peptides of protein E of SARS-CoV Urbani [3]: 0.4; Binding of serum SARS-yellow to linear peptides of protein E of SARS-CoV Urbani [3]: 0.3; Binding of serum SARS-yellow to looped/cyclic peptides of protein E of SARS-CoV Urbani [3]: 0.5 |
| NSVLLFLAFVVFLLV | 0.6 | 0.6 | 0.6 | 0.7 | 0.7 | 0.8 | 0.8 | 0.6 | 0.6 | 0.5 | 0.6 | 0.6 | 0.9 | 0.4 | 0.7 | 0.7 | 0.7 | 0.7 | 0.6 | 0.3 | Binding of serum SARS-green to linear peptides of protein E of SARS-CoV Urbani [3]: 0.3; Binding of serum SARS-green to looped/cyclic peptides of protein E of SARS-CoV Urbani [3]: 0.4; Binding of serum SARS-yellow to linear peptides of protein E of SARS-CoV Urbani [3]: 0.2; Binding of serum SARS-yellow to looped/cyclic peptides of protein E of SARS-CoV Urbani [3]: 0.7 |
| VNSVLLFLAFVVFLL | 0.2 | 0.4 | 0.5 | 0.5 | 0.4 | 0.7 | 0.9 | 0.6 | 0.1 | 0.4 | 1.1 | 0.5 | 0.6 | 0.3 | 0.5 | 0.6 | 0.2 | 0.7 | 1.4 | 0.3 | Binding of serum SARS-green to linear peptides of protein E of SARS-CoV Urbani [3]: 0.7; Binding of serum SARS-green to looped/cyclic peptides of protein E of SARS-CoV Urbani [3]: 0.4; Binding of serum SARS-yellow to linear peptides of protein E of SARS-CoV Urbani [3]: 0.6; Binding of serum SARS-yellow to looped/cyclic peptides of protein E of SARS-CoV Urbani [3]: 0.6 |
